Values after ≈ are worked out from the molar mass of the structure shown.
What was measured:
Type in all cases: cell-based
[1] = tested on: Staphylococcus aureus V41; assay: standard agar-dilution assay (MIC); conditions: Staphylococcus aureus V41, penicillin-resistant strain, unit assumed
Experimental: (§1) The MIC's in Table II were determined by standard agar-dilution assays. The MIC's in Table III were obtained using a conventional broth-dilution microtiter test.
^b Penicillinresistant strain

[2] = tested on: Staphylococcus aureus X400; assay: standard agar-dilution assay (MIC); conditions: Staphylococcus aureus X400, methicillin-resistant strain, unit assumed
Experimental: as §1
^c Methicillinresistant-strain

[3] = tested on: Pasteurella multocida 17E; assay: conventional broth-dilution microtiter test (MIC); conditions: bovine isolate, unit assumed
Experimental: as §1

Staphylococcus aureus = assay: conventional broth-dilution microtiter test (MIC); conditions: unit assumed
Experimental: as §1

Mycoplasma hyorhinis = assay: conventional broth-dilution microtiter test (MIC); conditions: unit assumed
Experimental: as §1

Mycoplasma gallisepticum = assay: conventional broth-dilution microtiter test (MIC); conditions: unit assumed
Experimental: as §1

Streptococcus sp. 80 = assay: conventional broth-dilution microtiter test (MIC); conditions: unit assumed
Experimental: as §1

Mycoplasma synoviae = assay: conventional broth-dilution microtiter test (MIC); conditions: unit assumed
Experimental: as §1

[4] = tested on: Pasteurella multocida 60A; assay: conventional broth-dilution microtiter test (MIC); conditions: avian isolate, unit assumed
Experimental: as §1

[5] = tested on: Streptococcus Group D X66; assay: standard agar-dilution assay (MIC); conditions: unit assumed
Experimental: as §1

Streptococcus Group 9960 = assay: standard agar-dilution assay (MIC); conditions: unit assumed
Experimental: as §1

[6] = tested on: Staphylococcus aureus S13E; assay: standard agar-dilution assay (MIC); conditions: unit assumed
Experimental: as §1

[7] = tested on: Staphylococcus epidermidis EPI2; assay: standard agar-dilution assay (MIC); conditions: unit assumed
Experimental: as §1

[8] = tested on: Haemophilus influenzae R252; assay: standard agar-dilution assay (MIC); conditions: Haemophilus influenzae R252, ampicillin-resistant strain, unit assumed
Experimental: as §1

[9] = tested on: Staphylococcus aureus X1.1; assay: standard agar-dilution assay (MIC); conditions: unit assumed
Experimental: as §1

[10] = tested on: Staphylococcus epidermidis EPI1; assay: standard agar-dilution assay (MIC); conditions: unit assumed
Experimental: as §1

[11] = tested on: Haemophilus influenzae Holt; assay: standard agar-dilution assay (MIC); conditions: ampicillin-sensitive strain, unit assumed
Experimental: as §1

[12] = tested on: Streptococcus pyogenes C203; assay: standard agar-dilution assay (MIC); conditions: unit assumed
Experimental: as §1

[13] = tested on: Streptococcus pneumoniae Park I; conditions: agar dilution, unit assumed
Experimental: as §1

| SMILES | MIC [1] | MIC [2] | MIC [3] | MIC (Staphylococcus aureus) | MIC (Mycoplasma hyorhinis) | MIC (Mycoplasma gallisepticum) | MIC (Streptococcus sp. 80) | MIC (Mycoplasma synoviae) | MIC [4] | MIC [5] | MIC (Streptococcus Group 9960) | MIC [6] | MIC [7] | MIC [8] | MIC [9] | MIC [10] | MIC [11] | MIC [12] | MIC [13] |
| --- | --- | --- | --- | --- | --- | --- | --- | --- | --- | --- | --- | --- | --- | --- | --- | --- | --- | --- | --- |
| CCC1OC(=O)CC(O)C(C)C(OC2OC(C)C(OC3CC(C)(O)C(O)C(C)O3)C(N(C)C)C2OC(C)=O)C(CC=O)CC(C)C(=O)C=CC(C)=CC1COC(=O)COc1ccccc1 (stereo not shown) [Compound 12, 2'-O-Acetyl-23-O-phenoxyacetyl-DMT] | 0.25 µg/mL (≈ 0.272 µM) | 0.5 µg/mL (≈ 0.545 µM) | 6.25 µg/mL (≈ 6.81 µM) | 0.39 µg/mL (≈ 0.425 µM) | 6.25 µg/mL (≈ 6.81 µM) | 0.097 µg/mL (≈ 0.106 µM) | 0.195 µg/mL (≈ 0.212 µM) | 0.78 µg/mL (≈ 0.85 µM) | 6.25 µg/mL (≈ 6.81 µM) | 0.5 µg/mL (≈ 0.545 µM) | 0.5 µg/mL (≈ 0.545 µM) | 0.5 µg/mL (≈ 0.545 µM) | 0.5 µg/mL (≈ 0.545 µM) | 8 µg/mL (≈ 8.71 µM) | 0.25 µg/mL (≈ 0.272 µM) | 0.5 µg/mL (≈ 0.545 µM) | 16 µg/mL (≈ 17.4 µM) | 0.125 µg/mL (≈ 0.136 µM) |  |
| CCC1OC(=O)CC(O)C(C)C(OC2OC(C)C(OC3CC(C)(O)C(O)C(C)O3)C(N(C)C)C2OC(C)=O)C(CC=O)CC(C)C(=O)C=CC(C)=CC1COC(=O)C(Cl)(Cl)Cl (stereo not shown) [Compound 16] | 2 µg/mL (≈ 2.15 µM) | 4 µg/mL (≈ 4.3 µM) | 6.25 µg/mL (≈ 6.73 µM) | 1.56 µg/mL (≈ 1.68 µM) | 3.12 µg/mL (≈ 3.36 µM) | 0.39 µg/mL (≈ 0.42 µM) | 0.39 µg/mL (≈ 0.42 µM) |  | 12.5 µg/mL (≈ 13.5 µM) | 1 µg/mL (≈ 1.08 µM) | 1 µg/mL (≈ 1.08 µM) | 1 µg/mL (≈ 1.08 µM) | 4 µg/mL (≈ 4.3 µM) | 2 µg/mL (≈ 2.15 µM) | 1 µg/mL (≈ 1.08 µM) | 1 µg/mL (≈ 1.08 µM) | 2 µg/mL (≈ 2.15 µM) | 0.5 µg/mL (≈ 0.538 µM) | 0.03 µg/mL (≈ 0.0323 µM) |
| CCC1OC(=O)CC(O)C(C)C(OC2OC(C)C(OC3CC(C)(O)C(O)C(C)O3)C(N(C)C)C2OC(C)=O)C(CC=O)CC(C)C(=O)C=CC(C)=CC1COC(=O)CCc1ccccc1 (stereo not shown) [Compound 13] | 1 µg/mL (≈ 1.09 µM) | 1 µg/mL (≈ 1.09 µM) | 1.56 µg/mL (≈ 1.7 µM) | 0.78 µg/mL (≈ 0.851 µM) | 3.12 µg/mL (≈ 3.41 µM) | ≤ 0.048 µg/mL | ≤ 0.048 µg/mL |  | 12.5 µg/mL (≈ 13.6 µM) | 0.5 µg/mL (≈ 0.546 µM) | 0.5 µg/mL (≈ 0.546 µM) | 0.5 µg/mL (≈ 0.546 µM) | 1 µg/mL (≈ 1.09 µM) | 2 µg/mL (≈ 2.18 µM) | 0.25 µg/mL (≈ 0.273 µM) | 1 µg/mL (≈ 1.09 µM) | 2 µg/mL (≈ 2.18 µM) | 0.25 µg/mL (≈ 0.273 µM) | 0.015 µg/mL (≈ 0.0164 µM) |
| CCC1OC(=O)CC(O)C(C)C(OC2OC(C)C(OC3CC(C)(O)C(O)C(C)O3)C(N(C)C)C2O)C(CC=O)CC(C)C(=O)C=CC(C)=CC1COC(=O)n1ccnc1 (stereo not shown) [Compound 22] | 1 µg/mL (≈ 1.2 µM) | 1 µg/mL (≈ 1.2 µM) | 12.5 µg/mL (≈ 15 µM) | 6.25 µg/mL (≈ 7.48 µM) | 1.56 µg/mL (≈ 1.87 µM) | 3.12 µg/mL (≈ 3.73 µM) | 1.56 µg/mL (≈ 1.87 µM) | 1.56 µg/mL (≈ 1.87 µM) | 25 µg/mL (≈ 29.9 µM) | 1 µg/mL (≈ 1.2 µM) | 0.5 µg/mL (≈ 0.598 µM) | 0.5 µg/mL (≈ 0.598 µM) | 0.5 µg/mL (≈ 0.598 µM) | 8 µg/mL (≈ 9.57 µM) | 0.5 µg/mL (≈ 0.598 µM) | 0.5 µg/mL (≈ 0.598 µM) | 16 µg/mL (≈ 19.1 µM) | 0.25 µg/mL (≈ 0.299 µM) |  |
| CCC1OC(=O)CC(O)C(C)C(OC2OC(C)C(OC3CC(C)(O)C(O)C(C)O3)C(N(C)C)C2OC(C)=O)C(CC=O)CC(C)C(=O)C=CC(C)=CC1COC(=O)Cc1ccccc1 (stereo not shown) [Compound 9, 2'-O-Acetyl-23-O-phenylacetyl-DMT] | 0.5 µg/mL (≈ 0.554 µM) | 0.5 µg/mL (≈ 0.554 µM) | 3.12 µg/mL (≈ 3.46 µM) | 0.195 µg/mL (≈ 0.216 µM) | 0.78 µg/mL (≈ 0.865 µM) | ≤ 0.048 µg/mL | ≤ 0.048 µg/mL |  | 6.25 µg/mL (≈ 6.93 µM) | 0.5 µg/mL (≈ 0.554 µM) | 0.25 µg/mL (≈ 0.277 µM) | 0.5 µg/mL (≈ 0.554 µM) | 0.5 µg/mL (≈ 0.554 µM) | 4 µg/mL (≈ 4.43 µM) | 0.5 µg/mL (≈ 0.554 µM) | 0.5 µg/mL (≈ 0.554 µM) | 4 µg/mL (≈ 4.43 µM) | 0.125 µg/mL (≈ 0.139 µM) | 0.015 µg/mL (≈ 0.0166 µM) |
| CCC1OC(=O)CC(O)C(C)C(OC2OC(C)C(OC3CC(C)(O)C(O)C(C)O3)C(N(C)C)C2OC(C)=O)C(CC=O)CC(C)C(=O)C=CC(C)=CC1COC(=O)Cc1ccc(Cl)cc1 (stereo not shown) [Compound 14, 2'-O-Acetyl-23-O-(p-chlorophenylacetyl)-DMT] | 2 µg/mL (≈ 2.14 µM) | 2 µg/mL (≈ 2.14 µM) | 3.12 µg/mL (≈ 3.33 µM) | 0.39 µg/mL (≈ 0.416 µM) | 6.25 µg/mL (≈ 6.67 µM) | < 0.048 µg/mL | 0.78 µg/mL (≈ 0.833 µM) | 0.78 µg/mL (≈ 0.833 µM) | 6.25 µg/mL (≈ 6.67 µM) | 1 µg/mL (≈ 1.07 µM) | 1 µg/mL (≈ 1.07 µM) | 1 µg/mL (≈ 1.07 µM) | 2 µg/mL (≈ 2.14 µM) | 4 µg/mL (≈ 4.27 µM) | 0.5 µg/mL (≈ 0.534 µM) | 1 µg/mL (≈ 1.07 µM) | 4 µg/mL (≈ 4.27 µM) | 0.5 µg/mL (≈ 0.534 µM) |  |
| CCC1OC(=O)CC(O)C(C)C(OC2OC(C)C(OC3CC(C)(O)C(O)C(C)O3)C(N(C)C)C2OC(C)=O)C(CC=O)CC(C)C(=O)C=CC(C)=CC1COC(=O)Cc1ccc([N+](=O)[O-])cc1 (stereo not shown) [Compound 15, 2'-O-Acetyl-23-O-(p-nitrophenylacetyl)-DMT] | 0.5 µg/mL (≈ 0.528 µM) | 0.5 µg/mL (≈ 0.528 µM) | 3.12 µg/mL (≈ 3.29 µM) | 1.56 µg/mL (≈ 1.65 µM) | 0.78 µg/mL (≈ 0.824 µM) | 0.39 µg/mL (≈ 0.412 µM) | 0.39 µg/mL (≈ 0.412 µM) | < 0.05 µg/mL | 6.25 µg/mL (≈ 6.6 µM) | 0.25 µg/mL (≈ 0.264 µM) | 0.25 µg/mL (≈ 0.264 µM) | 0.25 µg/mL (≈ 0.264 µM) | 0.5 µg/mL (≈ 0.528 µM) | 4 µg/mL (≈ 4.22 µM) | 0.25 µg/mL (≈ 0.264 µM) | 0.5 µg/mL (≈ 0.528 µM) | 8 µg/mL (≈ 8.45 µM) | 0.125 µg/mL (≈ 0.132 µM) |  |
| CCC1OC(=O)CC(O)C(C)C(OC2OC(C)C(OC3CC(C)(O)C(O)C(C)O3)C(N(C)C)C2OC(C)=O)C(CC=O)CC(C)C(=O)C=CC(C)=CC1COC(=O)NCc1ccccc1 (stereo not shown) [Compound 30] | 1 µg/mL (≈ 1.09 µM) | 0.5 µg/mL (≈ 0.545 µM) |  |  | 1.56 µg/mL (≈ 1.7 µM) | 0.39 µg/mL (≈ 0.425 µM) | 0.78 µg/mL (≈ 0.851 µM) | 0.78 µg/mL (≈ 0.851 µM) | 12.5 µg/mL (≈ 13.6 µM) | 0.5 µg/mL (≈ 0.545 µM) | 0.5 µg/mL (≈ 0.545 µM) | 0.5 µg/mL (≈ 0.545 µM) | 0.5 µg/mL (≈ 0.545 µM) | 4 µg/mL (≈ 4.36 µM) | 0.5 µg/mL (≈ 0.545 µM) | 0.5 µg/mL (≈ 0.545 µM) | 8 µg/mL (≈ 8.72 µM) | 0.5 µg/mL (≈ 0.545 µM) |  |
